Here are results for 24 molecules from patent US20060276440A1, “Treatment of inflammatory disorders” (priority 2005, published 2006).

Format in all cases: cell-based, human
In one experiment the test system is MMP-13. Kind of experiment: IL-1/OSM-stimulated pro-MMP-13 production in SW-1353 cells (ELISA). As to conditions: for IC50: Homo sapiens, mean (Examples 8, 10), read-out: IC50 values by pro-MMP-13 (OSM/IL-1-mediated production); for IC50 / effect on OSM/IL-1-mediated pro-MMP-13 production: SW1353 cells; for effect on OSM/IL-1-mediated pro-MMP-13 production: up to 1.5 μM. An excerpt: To test the compounds identified in the preliminary reporter (luciferase) activity […]® line 4A1 screen for inhibition of OSM signaling in a more physiologically relevant environment, a human cell line involved in an inflammatory disease was adapted. The human cartilage cell line SW-1353 was selected.
In the human cartilage cell line SW-1353, while IL-1 is believed to activate expression of collagenases to a small degree and OSM is believed to have no effect on collagenase expression, a combination of IL-1 and OSM is believed to lead to a synergistic activation of collagenases to much higher levels (S. Cowell et al., Biochem J 331 (Pt 2), 453 (Apr. 15, 1998). Regulation of MMP-13 in SW-1353 cells is, therefore, believed to provide a biomarker which can be used to monitor IL-1/OSM-mediated signal transduction events in secondary assays.
The same supernatants of culture media used in the primary screen were assayed for IL-1/OSM-stimulated pro-MMP-13 production and MMP-2 production by enzyme-linked immunosorbent assay (ELISA).
For matrix metalloproteinase (MMP) measures, SW1353 cells were grown to confluence in 24 well plates, washed in DMEM (with Ham's F12) and placed in 500 ul of serum free DMEM/F-12 with 0.2% lactalbumin hydrosylate with and without OsM/IL-1. After 24 hrs, supernatants were collected and the amounts of proMMP13, totalMMP2, and proMMP1 were measured using Quantikine® ELISA kit for human MMPs (R & D systems, Minneapolis, Minn.). All MMP measures were normalized to viable cell numbers based on a tetrazolium (MTS) colorimetric measure (Promega, Madison, Wis.).

Another experiment has as its system OSM signaling. Kind of experiment: […] 4A1 cell line (A549) OSM-stimulated luciferase reporter assay. The conditions noted are these: for IC50: Homo sapiens, A549; for effect on OSM-mediated reporter activity: up to 1.5 μM. Here is the method:
Cell line 4A1 was established in A549 cells (a human lung cancer cell line) using BV32, a vector that carries both the luciferase and GFP reporters. Assay development was performed to optimize the conditions of the OSM-response in the 4A1 […]® line.
(§1) Reporter activities of Sentinel® clones were measured using the Steady-Glo® Luciferase assay system (Promega, Madison, Wis.), according to the manufacturer's instructions, and were normalized to cell numbers based on nucleic acid quantification (CyQuant® cell proliferations assay, Molecular Probes/Invitrogen, Carlsbad, Calif.). In order to identify potential anti-inflammatory compounds, the OSM-responding Sentinel® clone 4A1 was used for a library screen of approximately 1800 compounds.

A further experiment concerns 4A1 reporter activity. Briefly: Activation of 4A1 Sentinel luciferase reporter by cytokines. As to conditions: for maximum activation of 4A1 luciferase reporter over background / EC50, induced reporter activity of 4A1: 4A1 cells; for EC50, induced reporter activity of 4A1: IL-1; for stimulatory effect on 4A1 reporter activity: other gp-130-binding cytokine family members, data not shown. Here is the method:
as §1
Sentinel lines were developed by utilizing promoter trapping technology in combination with positive and negative selections to efficiently deliver reporter genes into endogenously regulated genetic sites. Using this approach, a Sentinel cell line, 4A1, in A549 lung carcinoma cells that responded specifically to OSM and IL-1 stimulation among a panel of cytokines and active compounds was established (FIG. 9A).
OSM dose-dependently activated the luciferase reporter activity of 4A1 5-7 folds over background with EC50 of approximately 50 ng/ml (FIGS. 9A and B). […] When OSM and IL-1 were added together to 4A1 cells, the reporter activity appeared to be moderately more than the sum of individual activities obtained when OSM and IL-1 added separately (FIG. 9D). However, the luciferase activity of 4A1 appeared to respond predominantly to OSM, because OSM typically produced 5-7-fold maximum activation whereas IL-1 only produced 2-fold maximum activation (FIGS. 9B and C).

Setting [1] is: 4A1 cell line, primary screen (Table 1), read-out: IC50, inhibition of OSM-stimulated (luciferase) reporter activity.
The mark [2] stands for this setting: 4A1 cells, mean (Examples 7, 10), read-out: IC50 values by luciferase reporter activity (OSM-stimulated).

Like-named read-outs stand apart in the source and are kept apart here.

For the molecule `COc1cc2c(c(OC)c1OC)-c1ccc(OC)c(=O)cc1[C@@H](NC(C)=O)CC2` (atropisomer, axis not shown) [Colchicine (4), colchicine], the “reduction of signal (MMP-13 secondary assay)” value in the experiment with MMP-13 (at 4 μM, SW-1353) is reported as “approximately 83%”.
With `O=c1oc2ccccc2c(O)c1Cc1c(O)c2ccccc2oc1=O` [Dicumarol (11), 4-hydroxy-3-((4-hydroxy-2-oxo-2H-chromen-3-yl)methyl)-2H-chromen-2-one], in the experiment on OSM signaling (setting [1]), the IC50 was 3700 nM.
Still for that read-out and setting: the result for `C/C=C(/C(=C/C)c1ccc(O)cc1)c1ccc(O)cc1` [Dienestrol (10), 4-((2E,4E)-4-(4-hydroxyphenyl)hexa-2,4-dien-3-yl)phenol] reads 3500 nM; that for `COC(=O)Nc1nc2cc(Sc3ccccc3)ccc2[nH]1` [Fenbendazole (6), [5-(phenylthio)-1H-benzimidazol-2-yl]carbamic acid methyl ester], 800 nM.
As for `C=C1C(=O)[C@@]23[C@H](O)C[C@@H]4C(C)(C)CC[C@H](O)[C@@]4(CO)[C@@H]2CC[C@@H]1[C@H]3O` [Kamebakaurin, reference compound], in the experiment with OSM signaling (4A1 cells, FIG. 10A-E), the “effect of pathway inhibitors on OSM-stimulated reporter activity” value (“effect of pathway inhibitors” below) was “inhibited the reporter activity in a dose-dependent manner”.
As for `Clc1ccc2ncnc(NCc3ccc4c(c3)OCO4)c2c1` [MBCQ (5), 4-[[3,4-(Methylenedioxy)benzyl]amino]-6-chloroquinazoline], the IC50 with OSM signaling (setting [1]) was determined as 400 nM.
On to `COc1c(C)c2c(c(O)c1C/C=C(\C)CCC(=O)O)C(=O)OC2` [Mycophenolic acid (3), 6-(4-Hydroxy-6-methoxy-7-methyl-3-oxo-5-phthalanyl)-4-methyl-4-hexenoic acid], for which, in the experiment on OSM signaling (setting [1]), the IC50 was 20 nM.
`COC(=O)Nc1nc2ccc(C(=O)c3cccs3)cc2[nH]1` [Nocodazole, reference compound]: the IC50 was 104 nM with OSM signaling (setting [2]) and greater than 400 nM in the experiment on MMP-13.
Take `COc1cccc(-c2cc(=O)c3ccccc3o2)c1N` [PD98059, reference compound]: the “effect of pathway inhibitors” value in the experiment with OSM signaling (4A1 cells, FIG. 10A-E) is reported as “inhibited the reporter activity in a dose-dependent manner”.
On to `COc1cc([C@@H]2c3cc4c(cc3[C@H](O)[C@H]3COC(=O)[C@H]23)OCO4)cc(OC)c1OC` [Podophyllotoxin, reference compound], for which the IC50 was found to be 277 nM with OSM signaling (setting [2]) and 54.9 nM in the experiment with MMP-13.
Take `C[S+]([O-])c1ccc(-c2nc(-c3ccncc3)c(-c3ccc(F)cc3)[nH]2)cc1` (centres unmarked) [SB203580, reference compound]: the “effect of pathway inhibitors” value in the experiment on OSM signaling is “inhibited the reporter activity in a dose-dependent manner”.
Consider `CC(=O)O[C@H]1C(=O)[C@@]2(C)[C@H]([C@H](OC(=O)c3ccccc3)[C@]3(O)C[C@H](OC(=O)[C@H](O)[C@@H](NC(=O)c4ccccc4)c4ccccc4)C(C)=C1C3(C)C)[C@]1(OC(C)=O)CO[C@@H]1C[C@@H]2O` [Taxol, reference compound], for which the “effect on 4A1 reporter activity” value in the experiment on OSM signaling (under 200 nM, data not shown) is listed as “dose-dependently inhibited”. Also, the “effect on MMP-13 production” value in the experiment on MMP-13 (data not shown) is recorded as “no effect”.
Consider `CC[C@]1(O)C[C@@H]2CN(CCc3c([nH]c4ccccc34)[C@@](C(=O)OC)(c3cc4c(cc3OC)N(C)[C@H]3[C@@](O)(C(=O)OC)[C@H](OC(C)=O)[C@]5(CC)C=CCN6CC[C@]43[C@@H]65)C2)C1` [Vinbalstine, vinblastine, reference compound], for which the IC50 stood at 3.4 ± 0.6 nM in the experiment with OSM signaling (setting [2]) and 11.6 ± 5.2 nM with MMP-13.
Turning to `CC1CCC2(C)CCC3C(=CCC4(C)C3CCC3C(C)(C(=O)O)C(C)CCC34C)C2C1C` (stereo not drawn) [β-boswellic acid (7), 1,2,3,4,4a, 5,6,6a, 6b, 7,8,8a, 9, 10, 11, 12, 12a, 14, 14a, 14b-icosahydro-3,4,8a,11,12,14a,14b-heptamethylpicene-4-carboxylic acid], the IC50 in the experiment on OSM signaling (setting [1]) amounted to 1900 nM.
Regarding “IL-1β: cytokine from Peprotech used to stimulate cells”, the “maximum activation of 4A1 luciferase reporter over background” value with 4A1 reporter activity is recorded as 2 fold. The “EC50, induced reporter activity of 4A1” value at 4A1 reporter activity stood at 0.028 ± 0.01 ng/mL; on 4A1 reporter activity (listed as IL-1), 0.028 ng/mL.
For the molecule “IL-6: member of the gp-130-binding cytokine family”, the “stimulatory effect on 4A1 reporter activity” value (shortened to “stimulatory effect”) in the experiment with 4A1 reporter activity is “no stimulatory effect”.
For JAK inhibitor I [reference compound], the “effect of pathway inhibitors” value with OSM signaling (4A1 cells, FIG. 10A-E) was “inhibited the reporter activity in a dose-dependent manner”.
“LIF: member of the gp-130-binding cytokine family”: in the experiment on 4A1 reporter activity, the “stimulatory effect” value was “no stimulatory effect”.
For “OSM: proinflammatory cytokine, 28-kD glycoprotein of the gp130-binding cytokine family”, the “maximum activation of 4A1 luciferase reporter over background” value with 4A1 reporter activity is 5-7 fold.
Take cytochalacin B [reference compound]: the “effect on OSM-mediated reporter activity” value in the experiment with OSM signaling (4A1 cells, data not shown) is “did not have effect”. Besides, the “effect on OSM/IL-1-mediated pro-MMP-13 production” value in the experiment on MMP-13 (data not shown) is given as “did not have effect”.
As for cytochalacin D [reference compound], the “effect on OSM-mediated reporter activity” value with OSM signaling (4A1 cells, data not shown) was “did not have effect”. Also, the “effect on OSM/IL-1-mediated pro-MMP-13 production” value in the experiment on MMP-13 (data not shown) is on record as “did not have effect”.

B1: CT-1: member of the gp-130-binding cytokine family (protein, UniProt Q16619 1-201, looked up)
Cardiotrophin-1: MSRREGSLEDPQTDSSVSLLPHLEAKIRQTHSLAHLLTKYAEQLLQEYVQLQGDPFGLPSFSPPRLPVAGLSAPAPSHAGLPVHERLRLDAAALAALPPLLDAVCRRQAELNPRAPRLLRRLEDAARQARALGAAVEALLAALGAANRGPRAEPPAATASAASATGVFPAKVLGLRVCGLYREWLSRTEGDLGQLLPGGSA
For B1, the “stimulatory effect” value in the experiment on 4A1 reporter activity was “no stimulatory effect”.

B2: IL-11: member of the gp-130-binding cytokine family (protein, UniProt P20809 22-199, looked up)
Interleukin-11: PGPPPGPPRVSPDPRAELDSTVLLTRSLLADTRQLAAQLRDKFPADGDHNLDSLPTLAMSAGALGALQLPGVLTRLRADLLSYLRHVQWLRRAGGSSLKTLEPELGTLQARLDRLLRRLQLLMSRLALPQPPPDPPAPPLAPPSSAWGGIRAAHAILGGLHLTLDWAVRGLLLLKTRL
Regarding B2, the “stimulatory effect” value in the experiment with 4A1 reporter activity is on record as “no stimulatory effect”.

B3: CNTF: member of the gp-130-binding cytokine family (protein, UniProt P26441 1-200, looked up)
Ciliary neurotrophic factor: MAFTEHSPLTPHRRDLCSRSIWLARKIRSDLTALTESYVKHQGLNKNINLDSADGMPVASTDQWSELTEAERLQENLQAYRTFHVLLARLLEDQQVHFTPTEGDFHQAIHTLLLQVAAFAYQIEELMILLEYKIPRNEADGMPINVGDGGLFEKKLWGLKVLQELSQWTVRSIHDLRFISSHQTGIPARGSHYIANNKKM
In the case of B3, the “stimulatory effect” value in the experiment with 4A1 reporter activity was “no stimulatory effect”.
